The values below come from US20260250325A1, “Antiviral Polypeptide Membrane Fusion Inhibitor, and Preparation Method and Application Thereof” (priority 2025, published 2026).

Data set [1] can be described thus: Cytotoxicity test in HEp-2 cells (CCK8 cell viability). Format: cell-based. The note with it: human; HEp-2 cells, CCK8, 1 day; read-out: CC50. A digest of the protocol:
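HEp-2 cells seeded at 30,000/well, cultured overnight at 37° C./5% CO2, then exposed to diluted compound for 1 day in 0.5% DMSO. Viability read by CCK8, normalised to untreated-cell and medium-only controls; CC50 from four-parameter variable-slope fit.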

The subject of data set [2] is RSV A2 virus strain. Description: Mouse RSV A2 challenge protection, lung viral titer by plaque method. The data set is classed as in vivo, BALB/c mice. On the procedure: Female BALB/c mice were from Shanghai Yishang Biotechnology Co., Ltd. HEp- 2 were from the ATCC, with a catalog number CCL-23. The cells were cultured in a DMEM medium solution in which 10% (v/v) fetal bovine serum and 1% penicillin and streptomycin were added. The RSV A2 virus strain was from the ATCC, with a catalog number VR-1540.
Eight-week-old female BALB/c mice were grouped based on body weight (n=6). All animals were intranasally challenged with RSV on Day 0 at a challenge dosage of 1×10^6 pfu (20 μL) per animal. Administration began 1 h after Day 0 challenge; the polypeptide sample, positive control, and solvent control were administered via tracheal nebulization once daily for 5 consecutive days (see Table 3 below for administration dosage and administration frequency). Lung tissue was collected from all animals 2 h after the final administration on Day 4; left lung tissue was rapidly frozen in a virus protection solution with a 10-fold volume and stored below −70° C.; and a viral titer was detected by using a plaque method.
For analysis, the lung RSV A2 virus was determined by performing a tissue homogenate viral load plaque method. In short, on the day prior to sample detection, the HEp-2 cells were inoculated into a 12-well plate (spreading density being 0.3×10^6 cells/mL, with 1000 μL of cell suspension per well) according to a standard HEp-2 cell culture operation procedure. On the day of incubation, the supernatant was taken from the tissue sample that was homogenized using a tissue homogenizer (maintaining a low-temperature environment), and the supernatant was taken after centrifugation. The tissue homogenate sample was diluted with serum-free DMEM, and inoculated into a 12-well plate at a final volume of 400 μL. After 2 h of incubation, the homogenate supernatant was discarded, and 1.5 mL of a covering layer (cell culture medium containing 1% soft agar) was added to each well and cultured in the incubator for approximately 72 h. The covering layer was discarded, the cells were fixed, blocking was performed by using a blocking solution, dyeing was performed with HRP-RSVG, development and air drying were terminated with pure water. Colored spots on the well plate were counted by using a fluorescent (enzyme-linked) immunoassay spot analyzer, and the viral titer was expressed as a plaque-forming unit per gram of tissue (PFU/g). The viral titer was calculated as an arithmetic mean±standard error of all animals in a group.
One hour after RSV A2 challenge in mice, compounds 13, 14, 17, 19, 20, 21, 26, 27, 28, and 40 were administered via tracheal nebulization once daily for 5 consecutive days; and 2 h after the final administration, lung tissue was collected from all groups for viral plaque detection, and results were shown in Table 3.

Data set [3] concerns RSV A2 virus strain. Put plainly: Cotton rat RSV A2 challenge protection, lung nucleic acid load by RT-qPCR. Format: in vivo. The note with it: cotton rats. The source says:
Female cotton rats were from Shanghai Yishang Biotechnology Co., Ltd. The RSV A2 virus strain was from the ATCC, with a catalog number VR-1540. RT-qPCR primer+probe primer were supplied by Qingke Biotechnology Co., Ltd, with batch number TSP20241227-025-00187. The RT-qPCR standard was provided by Vazyme, with batch number 20241008.
Female cotton rats (6-8 weeks old) were grouped based on body weight (n=5). All animals were intranasally challenged with RSV on Day 0 at a challenge dosage of […] pfu (50 μL) per animal. Administration began 1 h after Day 0 challenge; the polypeptide sample, positive control, and solvent control were administered via tracheal nebulization once daily for 5 consecutive days. Lung tissue was collected from all animals 2 h after the final administration on Day 4. Left lung tissue (including partial trachea) was rapidly frozen in a virus protection solution with a 10-fold volume and stored below −70° C.; and the viral titer was detected with RT-qPCR.
First, sample homogenization and lung tissue RNA extraction were performed, and the supernatant was taken from the tissue sample that was homogenized using a tissue homogenizer (maintaining a low-temperature environment). The approximately 100 μL of the homogenate supernatant was taken, and total tissue RNA was extracted by using a VeZol reagent-chloroform-water phase-magnetic bead method, and dissolved in RNase-free water. The RT-qPCR reaction system was prepared as follows: a one-step RT-qPCR reaction system was prepared by using an RNA template, a probe, a primer pair, an RT-qPCR buffer, and the RNase-free water; each sample was tested in duplicated wells, with each well containing 20 μL of the one-step RT-qPCR reaction system; a quantitative standard curve well (RSV A2 N gene full-length plasmid), a positive quality control well, and a negative quality control well were arranged at the same time. Then, amplification programs were set according to reverse transcription, pre-denaturation, and cyclic amplification, and amplification data was collected by using a real-time fluorescence quantification PCR instrument, and a mean CT value for duplicated wells was calculated. The CT value from the test results for each sample was substituted into a quantitative standard curve to calculate a copy number. A calculation formula for RSV viral load (copy number/gram of lung tissue) was: sample viral load (copy number/gram of lung tissue)=copy number/relative tissue input (g).
One hour after RSV A2 challenge in cotton rats, compounds 13, 14, 17, 19, 20, 21, 26, 27, 28, and 40 were administered via tracheal nebulization once daily for 5 consecutive days; and 2 h after the final administration, lung tissue was collected from all groups for viral titer detection, and results were shown in Table 4.
For orientation: In qPCR the cycle at which signal appears reflects the starting amount.

Where a SMILES comes first, the peptide text is derived from it. [ ]: non-standard residue; d: D form. The star is where a group is joined. ξ: configuration not given here. Succinyl(4-O-cholesteryl) = CC(C)CCC[C@@H](C)[C@H]1CC[C@H]2[C@@H]3CC=C4C[C@@H](OC(=O)CCC(=O)*)CC[C@]4(C)[C@H]3CC[C@]12C; ξD = NC(CC(=O)O)C(=O)O

Broadly, the CC50 is the concentration giving 50% cytotoxicity. For `CC[C@H](C)[C@H](NC(=O)[C@H](CCCCN)NC(=O)[C@H](CCCCN)NC(=O)[C@H](CC(C)C)NC(=O)[C@H](CO)NC(=O)[C@H](CCC(=O)O)NC(=O)[C@H](CCC(=O)O)NC(=O)[C@@H](NC(=O)[C@H](CCCCN)NC(=O)[C@H](CCCCN)NC(=O)[C@H](CC(N)=O)NC(=O)[C@@H](NC(=O)[C@H](CCC(=O)O)NC(=O)[C@H](CCC(=O)O)NC(=O)[C@@H](NC(=O)[C@H](CCCCN)NC(=O)[C@H](CCCCN)NC(=O)[C@H](CC(=O)O)NC(=O)[C@H](Cc1ccccc1)NC(=O)[C@H](CCC(=O)O)NC(=O)C(CC(=O)O)NC(C)=O)[C@@H](C)CC)C(C)C)[C@@H](C)CC)C(=O)N[C@@H](CCC(=O)O)C(=O)N[C@@H](CCC(=O)O)C(=O)N[C@@H](CO)C(=O)N[C@@H](CC(=O)O)C(=O)N[C@@H](CCCCN)C(=O)N[C@@H](CCCCN)C(=O)N[C@@H](CC(C)C)C(=O)N[C@@H](CCC(=O)O)C(=O)N[C@@H](C)C(=O)N[C@@H](C)C(=O)N[C@@H](C)C(=O)N[C@@H](CCCCN)C(=O)N[C@@H](CCCCNC(=O)CCC(=O)O[C@H]1CC[C@@]2(C)C(=CC[C@H]3[C@@H]4CC[C@H]([C@H](C)CCCC(C)C)[C@@]4(C)CC[C@@H]32)C1)C(N)=O` (some centres unmarked) [Compound 17] (Ac-[ξD]EFDKKIEEVNKKIEESLKKIEESDKKLEAAAKK(Succinyl(4-O-cholesteryl))-NH2), the CC50 at 1 day in data set [1] was found to be 26.4 µM. The “Mean (PFU/g lung)” value in data set [2] (BALB/c mice, tracheal nebulization 1 mg/kg QD for 5 days, lung collected 2 h after final administration on Day 4) was determined as 7885 PFU/g lung. In addition, the “effect on viral titer in lung tissue (in words)” value in data set [2] (mice, tracheal nebulization once daily for 5 days) was “significantly reduce the viral titer in lung tissue”; in data set [3] (tracheal nebulization once daily for 5 days), “significantly reduce the viral titer in lung tissue”. In addition, the “Nucleic acid load RT-qPCR detection results Log10 mean (copy number/gram of lung tissue)” value in data set [3] (tracheal nebulization 1 mg/kg QD for 5 days, lung collected 2 h after final administration on Day 4) is reported as 8.42 Log10 copy number/gram of lung.
